Experimental data reported in ChEMBL document CHEMBL3351524, “Toward fluorescent probes for G-protein-coupled receptors (GPCRs)” (J Med Chem, 2014).
Starred links: 1 amine or outer side, 2 acyl side, 3 side chain; linkers in the order of their positions; H or OH if unused. Non-standard residues stand in square brackets, D forms with d. Residues, ends and D or L forms follow the SMILES beside them. ξ: configuration not given here. *: point of attachment. X1 = O=C(O)C[C@@H](C(=O)[*:2])N(c1ccc([N+](=O)[O-])c2nonc12)[*:1]; NBD = O=[N+]([O-])c1ccc(*)c2nonc12; Nle = CCCC[C@H](N)C(=O)O; ξDab = NCCC(N)C(=O)O; Bz = O=C(c1ccccc1)*

Legend:
[1] = molecular target: C-X-C chemokine receptor type 4 (Homo sapiens, UniProt P61073); assay: Displacement of [125I]SDF1 from CXCR4 (unknown origin) expressed in CHO cells; type: cell-based
Substance-K receptor = molecular target: T1, Substance-K receptor (Homo sapiens, UniProt P21452); assay: Displacement of [3H]GR100679 from NK2 receptor (unknown origin) expressed in CHO/T cells; type: cell-based
T1 sequence (P21452 whole entry): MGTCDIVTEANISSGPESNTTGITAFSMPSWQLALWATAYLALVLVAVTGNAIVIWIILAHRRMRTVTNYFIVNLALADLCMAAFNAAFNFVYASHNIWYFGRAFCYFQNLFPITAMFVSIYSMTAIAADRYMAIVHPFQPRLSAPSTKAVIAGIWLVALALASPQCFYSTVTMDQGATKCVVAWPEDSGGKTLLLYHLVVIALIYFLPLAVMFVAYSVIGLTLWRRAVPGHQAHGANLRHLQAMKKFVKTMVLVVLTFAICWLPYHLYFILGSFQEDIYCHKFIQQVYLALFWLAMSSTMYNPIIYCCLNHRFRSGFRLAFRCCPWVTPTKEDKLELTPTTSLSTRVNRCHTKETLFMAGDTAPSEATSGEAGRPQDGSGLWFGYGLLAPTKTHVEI

Sequence of C-X-C chemokine receptor type 4 (P61073 whole entry): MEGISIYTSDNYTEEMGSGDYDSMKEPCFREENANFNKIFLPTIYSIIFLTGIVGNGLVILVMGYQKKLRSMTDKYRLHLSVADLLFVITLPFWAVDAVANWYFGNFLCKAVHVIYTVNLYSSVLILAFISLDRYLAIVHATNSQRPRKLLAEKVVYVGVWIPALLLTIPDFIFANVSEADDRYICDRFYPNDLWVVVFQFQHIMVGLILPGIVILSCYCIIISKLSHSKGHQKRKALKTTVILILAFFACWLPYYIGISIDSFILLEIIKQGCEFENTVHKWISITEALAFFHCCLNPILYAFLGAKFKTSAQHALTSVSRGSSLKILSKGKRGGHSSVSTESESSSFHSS

Compound | IC50 [1] [nM] | Ki (Substance-K receptor) [nM]
CC(=O)N[C@@H](CCCNC(=N)N)C(=O)N[C@@H](CCCNC(=N)N)C(=O)N[C@@H](Cc1cccc2ccccc12)C(=O)N[C@H]1CSSC[C@@H](C(=O)N[C@@H](CCCNC(=N)N)C(N)=O)NC(=O)[C@H](CCCNC(N)=O)NC(=O)[C@H](CCCNC(=N)N)NC(=O)[C@H](Cc2ccc(O)cc2)NC(=O)[C@@H]2CCCN2C(=O)[C@@H](CCC(=O)O)NC(=O)[C@H](CCCNC(=N)N)NC(=O)[C@H](CCCNC(N)=O)NC(=O)[C@H](Cc2ccc(O)cc2)NC1=O | 6.7 | –
CCCC[C@H](NC(=O)[C@@H]1CCCN1C(=O)[C@H]1CCCN1C(=O)[C@H](Cc1ccccc1)NC(=O)[C@@H](Cc1c[nH]c2ccccc12)NC(=O)[C@H](C)NC(=O)[C@H](CCCNc1ccc([N+](=O)[O-])c2nonc12)NC(=O)c1ccccc1)C(N)=O | – | 1.45
CCCC[C@H](NC(=O)[C@H](CC(C)C)NC(=O)CNC(=O)[C@@H](NC(=O)[C@H](Cc1ccccc1)NC(=O)[C@H](CO)NC(=O)[C@H](CC(=O)O)Nc1ccc([N+](=O)[O-])c2nonc12)C(C)C)C(N)=O (H-[X1]SFVGL[Nle]-NH2) | – | 8.32
CCCC[C@H](NC(=O)[C@@H]1CCCN1C(=O)[C@H]1CCCN1C(=O)[C@H](Cc1ccccc1)NC(=O)[C@@H](Cc1c[nH]c2ccccc12)NC(=O)[C@H](C)NC(=O)C(CCNc1ccc([N+](=O)[O-])c2nonc12)NC(=O)c1ccccc1)C(N)=O (some centres undefined) | – | 1.35
CSCC[C@H](NC(=O)[C@H](CC(C)C)NC(=O)CNC(=O)[C@@H](NC(=O)[C@H](Cc1ccccc1)NC(=O)[C@H](CO)NC(=O)[C@H](CC(=O)O)NC(=O)[C@@H](NC(=O)[C@H](CCCCN)NC(=O)[C@H](Cc1cnc[nH]1)Nc1ccc([N+](=O)[O-])c2nonc12)[C@@H](C)O)C(C)C)C(N)=O | – | 5.89
CCCC[C@H](NC(=O)[C@@H]1CCCN1C(=O)[C@H]1CCCN1C(=O)[C@H](Cc1ccccc1)NC(=O)[C@@H](Cc1c[nH]c2ccccc12)NC(=O)[C@H](C)NC(=O)[C@H](CCCCNCC(=O)Nc1ccc([N+](=O)[O-])c2nonc12)NC(=O)c1ccccc1)C(N)=O | – | 1.58
CCCC[C@H](NC(=O)[C@@H]1CCCN1C(=O)[C@H]1CCCN1C(=O)[C@H](Cc1ccccc1)NC(=O)[C@@H](Cc1c[nH]c2ccccc12)NC(=O)[C@H](C)NC(=O)[C@H](C)NC(=O)c1ccccc1)C(N)=O (Bz-AA[dW]F[dP]P[Nle]-NH2) | – | 0.155
CCCC[C@H](NC(=O)[C@H](CC(C)C)NC(=O)CNC(=O)C(CCNc1ccc([N+](=O)[O-])c2nonc12)NC(=O)[C@H](Cc1ccccc1)NC(=O)[C@H](CO)NC(=O)[C@H](CC(=O)O)NC(C)=O)C(N)=O (some centres undefined) (Ac-DSF[ξDab](NBD)GL[Nle]-NH2) | – | 1950
CC(=O)N[C@@H](CCCNC(=N)N)C(=O)N[C@@H](CCCNC(=N)N)C(=O)N[C@@H](Cc1cccc2ccccc12)C(=O)N[C@H]1CSSC[C@@H](C(=O)N[C@@H](CCCNC(=N)N)C(N)=O)NC(=O)[C@H](CCCNC(N)=O)NC(=O)[C@H](CCCNC(=N)N)NC(=O)[C@H](Cc2ccc(O)cc2)NC(=O)[C@@H]2CCCN2C(=O)[C@@H](CCCCN)NC(=O)[C@H](CCCNC(=N)N)NC(=O)[C@H](CCCNC(N)=O)NC(=O)[C@H](Cc2ccc(O)cc2)NC1=O | 5.2 | –
